Assays:
Chenopodium album [1] = experiment: Test Example 5: herbicidal effect by foliage application, plastic box (symbol O); format: in vivo; conditions: 320 g/ha, 3 weeks after application
Method in brief: (§1)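 After sowing into sterilized diluvial soil and growing two weeks under glass at 25° C. to 30° C., seedlings receive a uniform foliar spray of diluted emulsion. Damage is judged visually three weeks on.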

Veronica persica [2] = experiment: Test Example 5: herbicidal effect by foliage application, plastic box (symbol R); format: in vivo; conditions: 320 g/ha, 3 weeks after application
Method in brief: as §1

Setaria viridis = experiment: Test Example 4: herbicidal effect by soil treatment (symbol G); format: in vivo; conditions: application herbicide amount 320 g/ha
Method in brief: (§2)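 Seeds were sown in sterilized diluvial soil, covered with about 1.5 cm of soil, and the soil surface was sprayed with a water-diluted emulsion of the compound at a predetermined rate. Plants grew in a greenhouse at 25° C. to 30° C.; effects were scored visually 3 weeks after application.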

Galium spurium = experiment: Test Example 4: herbicidal effect by soil treatment (symbol Q); format: in vivo; conditions: application herbicide amount 320 g/ha
Method in brief: as §2

Amaranthus retroflexus = experiment: Test Example 5: herbicidal effect by foliage application, plastic box (symbol N); format: in vivo; conditions: 320 g/ha, 3 weeks after application
Method in brief: as §1

Monochoria vaginalis = experiment: Test Example 1: herbicidal activity, application before weed generation in submerged conditions (symbol C); format: in vivo; conditions: application herbicide amount 320 g/ha
Method in brief: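 Weeds are sown into submerged alluvial soil alongside transplanted 2.5-leaf rice, and the compound, as an emulsion diluted to a set rate, is applied onto the water before emergence. Rating on the 0–5 herbicidal-ratio scale follows 3 weeks of greenhouse growth at 25–30 °C.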

rapeseed = experiment: Test Example 4: effect on crop by soil treatment (symbol g); format: in vivo; conditions: application herbicide amount 320 g/ha
Method in brief: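 Steps: fill box with sterilized diluvial soil; sow seed spot-like; cover with ~1.5 cm soil; grow in greenhouse (25° C. to 30° C.).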

Veronica persica [3] = experiment: Test Example 4: herbicidal effect by soil treatment (symbol R); format: in vivo; conditions: application herbicide amount 320 g/ha
Method in brief: as §2

Chenopodium album [4] = experiment: Test Example 4: herbicidal effect by soil treatment (symbol O); format: in vivo; conditions: application herbicide amount 320 g/ha
Method in brief: as §2

melting point	SMILES	O: Chenopodium album, herbicidal effect grade (Chenopodium album [1])	R: Veronica persica, herbicidal effect grade (Veronica persica [2])	G (Setaria viridis) herbicidal effect grade (Setaria viridis)	Q (Galium spurium) herbicidal effect grade (Galium spurium)	N: Amaranthus retroflexus, herbicidal effect grade (Amaranthus retroflexus)	Herbicidal effect grade, C: Monochoria vaginalis (Monochoria vaginalis)	g (rapeseed) effect on crop grade (rapeseed)	R (Veronica persica) herbicidal effect grade (Veronica persica [3])	O (Chenopodium album) herbicidal effect grade (Chenopodium album [4])
135 to 140 °C	CCON=C(C)CC1CC(O)=C(c2c(C)cc(C)cc2C)C1=O (stereo not drawn) [1-003]	3 (Herbicidal ratio of 40% or higher and lower than 70%)	3 (Herbicidal ratio of 40% or higher and lower than 70%)	3 (Herbicidal ratio of 40% or higher and lower than 70%)	0 (Herbicidal ratio of 5% or lower (almost no effect))	3 (Herbicidal ratio of 40% or higher and lower than 70%)	5 (Herbicidal ratio of 90% or more (almost completely withered))	4 (Herbicidal ratio of 70% or higher and lower than 90%)	–	–
147 to 149 °C	CCC(CC1CC(O)=C(c2c(C)cc(C)cc2C)C1=O)=NOC (stereo not drawn) [1-038]	0 (Herbicidal ratio of 5% or lower (almost no effect))	1 (Herbicidal ratio of 5% or higher and lower than 20%)	5 (Herbicidal ratio of 90% or more (almost completely withered))	0 (Herbicidal ratio of 5% or lower (almost no effect))	2 (Herbicidal ratio of 20% or higher and lower than 40%)	3 (Herbicidal ratio of 40% or higher and lower than 70%)	4 (Herbicidal ratio of 70% or higher and lower than 90%)	0 (Herbicidal ratio of 5% or lower (almost no effect))	0 (Herbicidal ratio of 5% or lower (almost no effect))
154 to 156 °C	CCC(C)C(CC1CC(O)=C(c2c(C)cc(C)cc2C)C1=O)=NOC (stereo not drawn) [1-066]	1 (Herbicidal ratio of 5% or higher and lower than 20%)	3 (Herbicidal ratio of 40% or higher and lower than 70%)	4 (Herbicidal ratio of 70% or higher and lower than 90%)	0 (Herbicidal ratio of 5% or lower (almost no effect))	0 (Herbicidal ratio of 5% or lower (almost no effect))	0 (Herbicidal ratio of 5% or lower (almost no effect))	0 (Herbicidal ratio of 5% or lower (almost no effect))	0 (Herbicidal ratio of 5% or lower (almost no effect))	0 (Herbicidal ratio of 5% or lower (almost no effect))
134 to 137 °C	CCCC(CC1CC(O)=C(c2c(C)cc(C)cc2C)C1=O)=NOC (stereo not drawn) [1-062]	0 (Herbicidal ratio of 5% or lower (almost no effect))	0 (Herbicidal ratio of 5% or lower (almost no effect))	5 (Herbicidal ratio of 90% or more (almost completely withered))	0 (Herbicidal ratio of 5% or lower (almost no effect))	0 (Herbicidal ratio of 5% or lower (almost no effect))	1 (Herbicidal ratio of 5% or higher and lower than 20%)	3 (Herbicidal ratio of 40% or higher and lower than 70%)	0 (Herbicidal ratio of 5% or lower (almost no effect))	0 (Herbicidal ratio of 5% or lower (almost no effect))
92 to 98 °C	CON=C(C)CC1CC(OC)=C(c2c(C)cc(C)cc2C)C1=O (stereo not drawn) [1-001, 2-mesityl-3-methoxy-5-{2-(methoxyimino)propyl}cyclopent-2-enone]	0 (Herbicidal ratio of 5% or lower (almost no effect))	0 (Herbicidal ratio of 5% or lower (almost no effect))	0 (Herbicidal ratio of 5% or lower (almost no effect))	0 (Herbicidal ratio of 5% or lower (almost no effect))	0 (Herbicidal ratio of 5% or lower (almost no effect))	0 (Herbicidal ratio of 5% or lower (almost no effect))	0 (Herbicidal ratio of 5% or lower (almost no effect))	0 (Herbicidal ratio of 5% or lower (almost no effect))	0 (Herbicidal ratio of 5% or lower (almost no effect))
93 to 95 °C	CC(CC1CC(O)=C(c2c(C)cc(C)cc2C)C1=O)=NOC(C)C (stereo not drawn) [1-052]	1 (Herbicidal ratio of 5% or higher and lower than 20%)	3 (Herbicidal ratio of 40% or higher and lower than 70%)	5 (Herbicidal ratio of 90% or more (almost completely withered))	–	0 (Herbicidal ratio of 5% or lower (almost no effect))	0 (Herbicidal ratio of 5% or lower (almost no effect))	3 (Herbicidal ratio of 40% or higher and lower than 70%)	0 (Herbicidal ratio of 5% or lower (almost no effect))	0 (Herbicidal ratio of 5% or lower (almost no effect))
95 to 98 °C	CC(CC1CC(O)=C(c2c(C)cc(C)cc2C)C1=O)=NO (stereo not drawn) [1-058]	0 (Herbicidal ratio of 5% or lower (almost no effect))	–	5 (Herbicidal ratio of 90% or more (almost completely withered))	–	1 (Herbicidal ratio of 5% or higher and lower than 20%)	0 (Herbicidal ratio of 5% or lower (almost no effect))	3 (Herbicidal ratio of 40% or higher and lower than 70%)	0 (Herbicidal ratio of 5% or lower (almost no effect))	0 (Herbicidal ratio of 5% or lower (almost no effect))
145 to 147 °C	CC(CC1CC(O)=C(c2c(C)cc(C)cc2C)C1=O)=NOC(C)(C)C (stereo not drawn) [1-053]	1 (Herbicidal ratio of 5% or higher and lower than 20%)	2 (Herbicidal ratio of 20% or higher and lower than 40%)	4 (Herbicidal ratio of 70% or higher and lower than 90%)	–	0 (Herbicidal ratio of 5% or lower (almost no effect))	0 (Herbicidal ratio of 5% or lower (almost no effect))	3 (Herbicidal ratio of 40% or higher and lower than 70%)	0 (Herbicidal ratio of 5% or lower (almost no effect))	0 (Herbicidal ratio of 5% or lower (almost no effect))
170 to 173 °C	CON=C(C)CC1CC(O)=C(c2c(C)cc(C)cc2C)C1=O (stereo not drawn) [1-002, 3-hydroxy-2-mesityl-5-{2-(methoxyimino)propyl}cyclopent-2-enone]	4 (Herbicidal ratio of 70% or higher and lower than 90%)	4 (Herbicidal ratio of 70% or higher and lower than 90%)	3 (Herbicidal ratio of 40% or higher and lower than 70%)	1 (Herbicidal ratio of 5% or higher and lower than 20%)	5 (Herbicidal ratio of 90% or more (almost completely withered))	4 (Herbicidal ratio of 70% or higher and lower than 90%)	5 (Herbicidal ratio of 90% or more (almost completely withered))	5 (Herbicidal ratio of 90% or more (almost completely withered))	5 (Herbicidal ratio of 90% or more (almost completely withered))
